Assays:
MHC = experiment: Western blot of MHC expression in differentiating C2C12 myoblasts; assay type: cell-based, mouse
Protocol: (§1) Various concentrations of inventive extract (1, 10, 100 ng/ml) were treated to C2C12 cells (mouse myoblast cell line; Cat^#CRL-1771, ATCC) in differentiation medium (2% horse serum-containing DMEM, Cat^#11965-084, Gibco) for 3 days to induce their differentiation.
(§2) For Western blot analysis, about 3×10^4 mouse myoblast cell cells were incubated in 60 mm plates for 24 hours, and each sample was added to the differentiation medium for 3 days to differentiate. The protein extract was obtained from the differentiated cells using by lysis buffer [25 mM Tris-HCl (pH 7.5), 100 mM NaCl, 1% NP-40, 1% sodium deoxycholate, 0.1% sodium dodecyl sulfate (SDS), and protease inhibitor cocktail, Calbiochem, Darmstadt, Germany). The protein extract (25 μg) was performed to SDS-polyacrylamide gel electorphoresis (PAGE) and transferred to polyvinylidene fluoride (PVDF) membranes.
Primary mouse anti-MHC (sc-376157, Santa Cruz) or anti-myoD (sc-32758, Santa Cruz) was conjugated to the blots at 4° C., for 12 hrs and then conjugated with anti-mouse secondary antibody conjugated to Horseradish peroxidase (goat anti-mouse IgG-HRP, sc-2005, SantaCruz) to analyze the amount of MHC protein by chemiluminescence method. Pan-cadherin (Cat #3678, Sigma) was used as a loading control in the experiment.
(§3) Various inventive compounds (10 nM) were treated to C2C12 cells (mouse myoblast cell line; Cat^#CRL-1771, ATCC) in differentiation medium (2% horse serum-containing DMEM, Cat^#11965-084, Gibco) for 3 days to induce their differentiation.
as §2, with “electrophoresis” for “electorphoresis”
(§4) The change of MHC expression caused by inventive compound in myotube cell was determined by immunostaining method using by mouse anti-MHC and anti-mouse IgG2b Alexa-fluor 568 (See FIG. 7) (Chem. Biol. Interact. 2016, 248:60).
(§5) Various concentrations of inventive compound 1 (1, 10 and 100 nM) were treated to C2C12 cells (mouse myoblast cell line; Cat^#CRL-1771, ATCC) in differentiation medium (2% horse serum-containing DMEM, Cat^#11965-084, Gibco) for 3 days to induce their differentiation.

myoD = experiment: Western blot of myoD expression in differentiating C2C12 myoblasts; assay type: cell-based, mouse; conditions: 3 days differentiation
Protocol: Various concentrations of inventive extract (1, 10, 100 ng/ml) were treated to C2C12 cells (mouse myoblast cell line; Ca^#CRL-1771, American Type Culture Collection (ATCC)) and cell lysates obtained from the differentiated cells, were subjected to Western Blot analysis to evaluate the expressed level of MHC and myoD proteins (The result was shown in FIG. 1A). the change of MHC expression caused by inventive extract in myotube cell was determined by immunostaining method using by mouse anti-MHC and anti-mouse IgG2b Alexa-fluor 568 (See FIG. 1B) (Chem. Biol. Interact. 2016, 248:60).
as §1
as §2, with “The protein extract (25 μg) was performed to SDS-polyacrylamide gel electorphoresis (PAGE) and transferred to polyvinylidene fluoride (PVDF) membranes.” left out
In order to investigate the myogenic effect of the inventive compound 1 obtained in Example, various concentrations of inventive compound 1 (1, 10 and 100 nM) were treated to C2C12 cells (mouse myoblast cell line; Cat^#CRL-1771, American Type Culture Collection (ATCC)) and cell lysates obtained from the differentiated cells, were subjected to Western Blot analysis to evaluate the expressed level of MHC and myoD proteins (The result was shown in FIG. 6). The change of MHC expression caused by inventive compound in myotube cell was determined by immunostaining method using by mouse anti-MHC and anti-mouse IgG2b Alexa-fluor 568 (See FIG. 7) (Chem. Biol. Interact. 2016, 248:60). […]

C2C12 cells = experiment: Immunofluorescence staining (anti-MHC/DAPI) of multinucleated myotubes, myoblast differentiation; assay type: cell-based, mouse
Protocol: as §1
(§6) After removing respective differentiation medium, the differentiated myoblast cells in the differentiation medium were washed with phosphate buffer solution twice and fixed with 4% paraformaldehyde (0141, BBC Biochemical) for 20 mins. After washing the cells with phosphate buffer solution twice again, the cells were treated with 0.1% tritonX-100 (2315025, Sigma) for 20 mins. After washing the cells with phosphate buffer solution twice again, the cells were blocked with 5% horse serum solution (16050122, Gibco) and mouse anti-MHC (MAB4470, R&D systems) was added thereto to react for 12 hours at 4° C.
(§7) After finishing the reaction, the cells were washed with phosphate buffer solution more than 3 times and then the level of MHC expression was analyzed using by Alexa Flouor 568-conjuagted secondary anti-mouse (A-21144, MicoProbes) and DAPI (D9542, Sigma). The test result of immunofluorescence on MHC-positive myotubes was visualized with red color and the DAPI-labelled nucleus was visualized with blue color.
as §3, §4, §5

p38 MAPK = experiment: Western blot of phosphorylated p38 MAPK in differentiated myotubes; assay type: cell-based, mouse; conditions: 3 days after differentiation
Protocol: Various concentrations of inventive extract (1, 10, 100 ng/ml) were treated to myoblast cells and the expressed level of p38 MAPK protein in the lysates of differentiated myotubes obtained at 3 days after the differentiation, was determined according to Western blot analysis.
Primary rabbit-anti phosphorylation p38 MAPK (Cat #9212, Cell Signaling Technology) was reacted with anti-rabbit secondary antibody (goat anti-rabbit IgG-HRP, sc-2004, SantaCruz) to determine the express level of phosphorylated p38 MAPK and primary rabbit-anti-p38 MAPK (Cat #9212, Cell Signaling Technology) was used to determine the expressed amount of total p38 MAPK (loading control)
Various concentrations of inventive compound 1 (1, 10, 100 nM) were treated to myoblast cells and the expressed level of p38 MAPK protein in the lysates of differentiated myotubes obtained at 3 days after the differentiation, was determined according to Western blot analysis.

[1] = tested on: C2C12 myotube cells treated with dexamethasone; experiment: Immunofluorescence staining of multinucleated MHC-positive myotubes after dexamethasone-induced muscle loss; assay type: cell-based, mouse; conditions: dexamethasone (12 hours) + compound 10 nM; control group = 1
Protocol: as §6, §7
About 3×10^4 mouse myoblast cell cells (C2C12; CRL-1772 ATCC) were incubated in 60 mm plates for 24 hours, and various inventive compounds (10 nM) were added to the differentiation medium (0273, Gibco) for 3 days to differentiate.

[2] = Body weight in dexamethasone animal model of muscle loss; assay type: in vivo, mouse; conditions: Dexa + oxymetholone 10 mg/kg oral daily
Protocol: (§8) Dexamethasone, a synthetic glucocorticoid, was injected subcutaneously into C57/BL6 mouse mice to establish an animal model of muscle loss and following experiment was performed.
(§9) To establish an in vivo model of muscle loss, 6 weeks-old male C57/BL6 mice (Raon Bio, 6 weeks old, weight range: 32-36 g) were acclimated for one-week, and then weighed animals determined to be healthy during the acclimatization period. The mice close to the average weight were selected using a simple random sampling method and were classified into five groups, namely, (a) a control group, (b) a muscle loss control group (treated with dexamethasone 1 mg/kg), (c) test sample group treated with inventive extract 250 mg/kg and dexamethasone, (d) test sample group treated with inventive extract 500 mg/kg and dexamethasone, and (e) positive control treated with oxymetholone (Celltrion Co. Ltd, ATC #A14AA05, 10 mg/kg) and dexamethasone.
(§10) The inventive Extract and oxymetholone were administered once to the mice daily for 4 weeks and dexamethasone was injected subcutaneously for 10 days from 10 days before the end of co-treatment of inventive extract and oxymetholone.
(§11) Both of inventive extract and oxymetholone were forcibly administered orally using zonde for oral administration after holding and fixing the skin of the animal's poll area, and dexamethasone was injected slowly subcutaneously after inserting a syringe into the dorsal skin fold of the animal held on the thumb and index finger, slightly aspirating whether it was injected normally, and confirming that no blood came out.
The body weight of every animal was measured once a week for 4 weeks from the day of inventive extract administration.

C57/BL6 mice [3] = experiment: Grip strength test in dexamethasone animal model of muscle loss; assay type: in vivo, mouse; conditions: Dexa + oxymetholone 10 mg/kg oral daily
Protocol: as §8, §9, §10, §11
The grip strength of mice was determined as follows; after grabbing the animal's tail and placing it on the grid, the front foot and body were pulled at the same speed until the front foot and body were held at the grid with the front paw, and the average value was calculated after three experimental repetitions. The determination was performed on the 14th and 28th days after the administration of test sample.

C57/BL6 mice [4] = experiment: Treadmill test in dexamethasone animal model of muscle loss; assay type: in vivo, mouse; conditions: Dexa + oxymetholone 10 mg/kg oral daily
Protocol: as §8, §9, §10, §11
The determination was performed on the 14th and 28th days after the administration of test sample.

C57/BL6 mice [5] = experiment: Weight of muscle mass, epididymal fat and liver in dexamethasone animal model of muscle loss; assay type: in vivo, mouse; conditions: Dexa + oxymetholone 10 mg/kg oral daily, autopsy at 4 weeks
Protocol: as §8, §9, §10, §11
The mice were anesthetized with anesthetic to prevent the movement of experimental animals and sacrificed to minimize pain to dissect them. All instruments used during the experiment were sterilized and disinfected and their liver and epididymis fat were harvested.
The gastrocnemius muscle and soleus muscle of the mice were separated, washed in saline, drained, and weighed.
After autopsy at 4 weeks after administration, the weight of liver and Epididymis fat was weighed to calculate weight-to-weight to compare the relative differences between the organ's weight in the groups.

[6] = compound 10 nM, 3 days differentiation, control = 1 (Experimental Example 3)
[7] = compound 10 nM, 3 days differentiation (Experimental Example 3)

SMILES: COc1cc(/C=C/C(=O)OC[C@H](Cc2ccc(O)c(OC)c2)[C@H](COC(=O)/C=C/c2ccc(O)c(OC)c2)Cc2ccc(O)c(OC)c2)ccc1O [Compound 1, (−)-(2R,3R)-1,4-O-diferuloylsecoisolariciresinol]
- MHC/pan-cadherin expression (fold) (MHC; [6]): 1.5 fold
- MHC/pan-cadherin expression (fold) (MHC; compound 1 at 1 nM, 3 days differentiation (Experimental Example 4)): 1.2 fold
- MHC/pan-cadherin expression (fold) (MHC; compound 1 at 10 nM, 3 days differentiation (Experimental Example 4)): 6.0 fold
- MHC/pan-cadherin expression (fold) (MHC; compound 1 at 100 nM, 3 days differentiation (Experimental Example 4)): 4.6 fold
- myoD/pan-cadherin expression (fold) (myoD; compound 1 at 1 nM): 1.2 fold
- myoD/pan-cadherin expression (fold) (myoD; compound 1 at 10 nM): 1.3 fold
- myoD/pan-cadherin expression (fold) (myoD; compound 1 at 100 nM): 1.7 fold
- The number of muscle fibers that are multinucleated with five or more nuclei and expressed with MHC (fold) (C2C12 cells; [7]): 2.8 fold
- The number of muscle fibers that are multinucleated with five or more nuclei and expressed with MHC (fold) (C2C12 cells; compound 1 at 1 nM (Experimental Example 4)): 1.5 fold
- The number of muscle fibers that are multinucleated with five or more nuclei and expressed with MHC (fold) (C2C12 cells; compound 1 at 10 nM (Experimental Example 4)): 9.0 fold
- The number of muscle fibers that are multinucleated with five or more nuclei and expressed with MHC (fold) (C2C12 cells; compound 1 at 100 nM (Experimental Example 4)): 8.0 fold
- phosphorylated-p38/p38 expressed amount (fold) (p38 MAPK; compound 1 at 1 nM): 10.6 fold
- phosphorylated-p38/p38 expressed amount (fold) (p38 MAPK; compound 1 at 10 nM): 14.8 fold
- phosphorylated-p38/p38 expressed amount (fold) (p38 MAPK; compound 1 at 100 nM): 15.0 fold
- The number of muscle fibers that are multinucleated with five or more nuclei and expressed with MHC (fold) [1]: 0.7 fold

SMILES: O=C(CCc1ccc(O)c(O)c1)CC(O)CCc1ccc(O)c(O)c1 (stereo not shown) [Compound 4, Hirsutanonol]
- MHC/pan-cadherin expression (fold) (MHC; [6]): 1.9 fold
- The number of muscle fibers that are multinucleated with five or more nuclei and expressed with MHC (fold) (C2C12 cells; [7]): 3.1 fold
- The number of muscle fibers that are multinucleated with five or more nuclei and expressed with MHC (fold) [1]: 0.7 fold

SMILES: C[C@]12C/C(=C/O)C(=O)C[C@@H]1CC[C@@H]1[C@@H]2CC[C@@]2(C)[C@H]1CC[C@]2(C)O [Oxy, oxymetholone]
- body weight ([2]; 0 week): 22.26 ± 0.71 gram
- body weight ([2]; 1 week): 22.49 ± 0.72 gram
- body weight ([2]; 2 weeks): 23.25 ± 0.90 gram
- body weight ([2]; 3 weeks): 23.22 ± 0.93 gram
- body weight ([2]; 4 weeks): 23.20 ± 0.78^b gram
- grip strength (C57/BL6 mice [3]; 2 weeks): 1.00 ± 0.06 N
- grip strength (C57/BL6 mice [3]; 4 weeks): 1.25 ± 0.16^a N
- motility (treadmill) (C57/BL6 mice [4]; 2 weeks): 774.75 ± 66.11 meter
- motility (treadmill) (C57/BL6 mice [4]; 4 weeks): 773.93 ± 39.64 meter
- absolute weight, epididymal fat (C57/BL6 mice [5]): 0.43 ± 0.09^# gram
- absolute weight, liver (C57/BL6 mice [5]): 1.16 ± 0.07 gram
- absolute weight, calf muscle (C57/BL6 mice [5]; gastrocnemius): 0.251 ± 0.016 gram
- absolute weight, fluke muscle (C57/BL6 mice [5]; soleus): 0.023 ± 0.002^d gram

From patent publication US20230270805A1, “A COMPOSITION COMPRISING AN EXTRACT OF ALDER TREE OR THE ISOLATED COMPOUNDS THEREFROM FOR TREATING AND PREVENTING SKELETON MUSCLE-RELATED DISORDER AND THE USE THEREOF” (Sookmyung Women's University Indusutry-Academic Cooperation …, priority 2020, published 2023)
